# Assay results reported in ChEMBL document CHEMBL6127057, “Design and synthesis of Thieno[3, 2-b]pyridinone derivatives exhibiting potent activities against Mycobacterium tuberculosis in vivo by targeting Enoyl-ACP reductase” (Eur J Med Chem, 2024).
# Activity calls are given as the source filed them. No cut-off for these calls is given here.
# Legend:
# [1] = system: Mycobacterium tuberculosis; assay: Antimycobacterial activity against marker-free avirulent autoluminescent Mycobacterium tuberculosis H37Ra assessed as inhibition of relative light unit relative to control; assay type: functional
# Staphylococcus aureus = assay: Antibacterial activity against Staphylococcus aureus assessed as bacterial growth inhibition incubated for 24 hrs; assay type: functional
# Escherichia coli = assay: Antibacterial activity against Escherichia coli assessed as bacterial growth inhibition incubated for 24 hrs; assay type: functional
# Cryptococcus neoformans = assay: Antifungal activity against Cryptococcus neoformans assessed as fungal growth inhibition incubated for 72 hrs; assay type: functional
# Candida albicans = assay: Antifungal activity against Candida albicans assessed as fungal growth inhibition incubated for 48 hrs; assay type: functional
# [2] = system: Mycobacterium tuberculosis; assay: Antimycobacterial activity against wild-type Mycobacterium tuberculosis H37Rv incubated for 4 weeks by MABA assay; assay type: functional; details: 672 h
# L02 = assay: Cytotoxicity against human L02 cells incubated for 48 hrs by CCK-8 assay; assay type: toxicity, cell-based; details: l02, 48 h
# [3] = system: Mycobacterium tuberculosis; assay: Antimycobacterial activity against Mycobacterium tuberculosis UAlRv infection model using mouse RAW264.7 cells assessed as inhibition of bacterial growth incubated for 72 hrs; assay type: functional
# [4] = biological target: T1, Enoyl-[acyl-carrier-protein] reductase [NADH] (Mycobacterium tuberculosis) (UniProt P9WGR1); assay: Inhibition of C-terminal his-tagged Mycobacterium tuberculosis InhA extracted from Escherichia coli BL21(DE3) cells using trans-2-dodecenoyl-coenzyme A as substrate at 25 microM by UV based analysis
# T1 sequence (whole entry): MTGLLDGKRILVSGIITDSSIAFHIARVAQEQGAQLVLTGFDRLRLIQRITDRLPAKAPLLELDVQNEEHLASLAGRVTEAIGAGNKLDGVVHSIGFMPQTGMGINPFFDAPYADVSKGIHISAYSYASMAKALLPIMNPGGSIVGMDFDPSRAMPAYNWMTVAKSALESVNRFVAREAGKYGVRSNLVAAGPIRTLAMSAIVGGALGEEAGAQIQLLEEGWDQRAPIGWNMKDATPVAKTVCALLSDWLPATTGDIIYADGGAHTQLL
# [5] = system: Mycobacterium tuberculosis; assay: Antimycobacterial activity against Mycobacterium tuberculosis H37Rv assessed as inhibition of growth by kill kinetic analysis; assay type: functional
# [6] = Tmax in male Sprague-Dawley rat at 100 mg/kg, po measured upto 240 hrs by LC/MS/MS analysis; assay type: ADME, organism-based; details: in vivo
# [7] = Cmax in male Sprague-Dawley rat at 100 mg/kg, po measured upto 240 hrs by LC/MS/MS analysis; assay type: ADME, organism-based; details: in vivo
# [8] = Half life in male Sprague-Dawley rat at 100 mg/kg, po measured upto 240 hrs by LC/MS/MS analysis; assay type: ADME, organism-based; details: in vivo
# [9] = Half life in male Sprague-Dawley rat at 1 mg/kg, iv measured upto 240 hrs by LC/MS/MS analysis; assay type: ADME, organism-based; details: in vivo
# [10] = AUC (0 to infinity) in male Sprague-Dawley rat at 1 mg/kg, iv measured upto 240 hrs by LC/MS/MS analysis; assay type: ADME, organism-based; details: in vivo
# [11] = AUC (0 to infinity) in male Sprague-Dawley rat at 100 mg/kg, po measured upto 240 hrs by LC/MS/MS analysis; assay type: ADME, organism-based; details: in vivo
# [12] = Oral bioavailability in male Sprague-Dawley rat at 100 mg/kg measured upto 240 hrs by LC/MS/MS analysis; assay type: ADME, organism-based; details: in vivo
# [13] = system: Mycobacterium tuberculosis; assay: Antimycobacterial activity against Mycobacterium tuberculosis H37Rv infected in female BALB/c mouse assessed as reduction in relative light unit in lung, po administered once daily for 5 days; assay type: functional, organism-based; details: dose 30-300 mg/kg, time 5.0 day
# [14] = system: Mycobacterium tuberculosis; assay: Antimycobacterial activity against Mycobacterium tuberculosis H37Rv infected in female BALB/c mouse assessed as reduction in relative light unit in lung at 300 mg/kg, po administered once daily for 5 days; assay type: functional; details: time 5 day
# [15] = system: Mycobacterium tuberculosis; assay: Antimycobacterial activity against Mycobacterium tuberculosis H37Rv infected in female BALB/c mouse assessed as reduction in relative light unit in spleen at 300 mg/kg, po administered once daily for 5 days; assay type: functional; details: time 5 day
# [16] = system: Mycobacterium tuberculosis; assay: Antimycobacterial activity against Mycobacterium tuberculosis H37Rv infected in female BALB/c mouse assessed as reduction in relative light unit in lung at 30 mg/kg, po in presence of Rifampicin administered once daily for 5 days; assay type: functional; details: time 5 day
# [17] = system: Mycobacterium tuberculosis; assay: Antimycobacterial activity against Mycobacterium tuberculosis H37Rv infected in female BALB/c mouse assessed as reduction in relative light unit in lung at 100 mg/kg, po administered once daily for 5 days; assay type: functional; details: time 5 day
# [18] = system: Mycobacterium tuberculosis; assay: Antimycobacterial activity against Mycobacterium tuberculosis H37Rv infected in female BALB/c mouse assessed as reduction in relative light unit in lung at 100 mg/kg, po in presence of Rifampicin administered once daily for 5 days; assay type: functional; details: time 5 day
# [19] = system: Mycolicibacterium smegmatis; assay: Antimycobacterial activity against recombinant Mycobacterium smegmatis transfected with pMV261-Mtb InhA assessed as inhibition of bacterial growth at 0.25 to 64 microg/ml incubated for 3 days; assay type: functional; details: 72 h, dose 0.25-64 µg/ml, time 3 day
# [20] = system: Mycolicibacterium smegmatis; assay: Antimycobacterial activity against recombinant Mycobacterium smegmatis transfected with pMV261 assessed as inhibition of bacterial growth at 0.25 to 64 microg/ml incubated for 3 days; assay type: functional; details: 72 h, dose 0.25-64 µg/ml, time 3 day
# [21] = system: Mycolicibacterium smegmatis; assay: Selectivity ratio of MIC for recombinant Mycobacterium smegmatis transfected with pMV261-Mtb InhA to MIC for recombinant Mycobacterium smegmatis transfected with pMV261; assay type: functional
# [22] = Toxicity in BALB/c mouse infected with Mycobacterium tuberculosis H37Rv assessed as optimal condition at 300 mg/kg, po administered once daily for 5 days; assay type: organism-based; details: in vivo, 120 h, time 5 day
smiles,measurement,setting,value
O=c1[nH]c2c(Br)csc2c(O)c1-c1ccccc1F,MIC90,[1],0.5 µg/mL
same,MIC99,Staphylococcus aureus,> 64 µg/mL
same,MIC99,Escherichia coli,> 64 µg/mL
same,MIC80,Cryptococcus neoformans,> 64 µg/mL
same,MIC80,Candida albicans,> 64 µg/mL
O=c1[nH]c2c(Br)csc2c(O)c1-c1ccc([N+](=O)[O-])cc1,MIC90,[1],32 µg/mL
O=c1[nH]c2c(Br)csc2c(O)c1-c1ccccc1Cl,MIC90,[1],1 µg/mL
COc1ccc(-c2c(O)c3scc(Br)c3[nH]c2=O)cc1,MIC90,[1],16 µg/mL
O=c1[nH]c2c(Br)csc2c(O)c1-c1cccs1,MIC90,[1],4 µg/mL
CC(C)(C)c1ccc(-c2c(O)c3scc(Br)c3[nH]c2=O)cc1,MIC90,[1],> 64 µg/mL
O=c1[nH]c2c(Br)csc2c(O)c1-c1cccc(F)c1,MIC90,[1],0.5 µg/mL
same,MIC99,Staphylococcus aureus,> 64 µg/mL
same,MIC99,Escherichia coli,> 64 µg/mL
same,MIC80,Cryptococcus neoformans,> 64 µg/mL
same,MIC80,Candida albicans,> 64 µg/mL
CO[C@H]1/C=C/O[C@@]2(C)Oc3c(C)c(O)c4c(O)c(c(/C=N/N5CCN(C)CC5)c(O)c4c3C2=O)NC(=O)/C(C)=C\C=C\[C@H](C)[C@H](O)[C@@H](C)[C@@H](O)[C@@H](C)[C@H](OC(C)=O)[C@@H]1C [RIFAMPIN],MIC90,[1],0.25 µg/mL
same,MIC,[2],0.125 µg/mL
O=c1[nH]c2c(Br)csc2c(O)c1-c1ccc(F)cc1,MIC90,[1],2 µg/mL
O=c1[nH]c2c(Br)csc2c(O)c1-c1ccc(Cl)cc1,MIC90,[1],> 64 µg/mL
O=c1[nH]c2c(Br)csc2c(O)c1-c1cccc(Cl)c1,MIC90,[1],0.5 µg/mL
same,MIC99,Staphylococcus aureus,> 64 µg/mL
same,MIC99,Escherichia coli,> 64 µg/mL
same,Activity,L02,Toxic
same,MIC90,[3],1 µg/mL
same,inhibition,[4],Active
C[C@@H]1[C@H](O)[C@@H](C)/C=C/C=C/C=C/C=C/C=C/C=C/C=C/[C@H](O[C@@H]2O[C@H](C)[C@@H](O)[C@H](N)[C@@H]2O)C[C@@H]2O[C@](O)(C[C@@H](O)C[C@@H](O)[C@H](O)CC[C@@H](O)C[C@@H](O)CC(=O)O[C@H]1C)C[C@H](O)[C@H]2C(=O)O [AMPHOTERICIN B],MIC80,Cryptococcus neoformans,0.5 µg/mL
same,MIC80,Candida albicans,0.125 µg/mL
O=c1[nH]c2c(Br)csc2c(O)c1-c1ccco1,MIC90,[1],8 µg/mL
CC1(C)S[C@@H]2[C@H](NC(=O)[C@H](N)c3ccc(O)cc3)C(=O)N2[C@H]1C(=O)O [AMOXICILLIN],MIC99,Staphylococcus aureus,0.5 µg/mL
same,MIC99,Escherichia coli,0.05 µg/mL
Cc1ccc(-c2c(O)c3scc(Br)c3[nH]c2=O)cc1,MIC90,[1],32 µg/mL
Cc1ccccc1-c1c(O)c2scc(Br)c2[nH]c1=O,MIC90,[1],0.5 µg/mL
same,MIC99,Staphylococcus aureus,> 64 µg/mL
same,MIC99,Escherichia coli,> 64 µg/mL
same,MIC80,Cryptococcus neoformans,> 64 µg/mL
same,MIC80,Candida albicans,> 64 µg/mL
N#Cc1cccc(-c2c(O)c3scc(Br)c3[nH]c2=O)c1,MIC90,[1],> 64 µg/mL
CC1(C)CCC(Cc2cc(O)c(-c3ccccc3)c(=O)[nH]2)CC1,MIC50,[5],0.05 µM
Cc1ccc(C)c(-c2c(O)c3scc(Br)c3[nH]c2=O)c1,MIC90,[1],32 µg/mL
O=c1[nH]c2c(Br)csc2c(O)c1-c1cccc(Oc2ccccc2)c1,MIC90,[1],32 µg/mL
O=c1[nH]c2c(Br)csc2c(O)c1-c1cccc(Br)c1,MIC90,[1],16 µg/mL
O=c1[nH]c2c(Br)csc2c(O)c1-c1ccc(C(F)(F)F)cc1,MIC90,[1],16 µg/mL
NNC(=O)c1ccncc1 [ISONIAZID],MIC,[2],0.03 µg/mL
same,MIC50,[5],0.33 µM
O=c1[nH]c2c(Br)csc2c(O)c1-c1cccc(OC(F)(F)F)c1,MIC90,[1],> 64 µg/mL
Cc1cccc(-c2c(O)c3scc(Br)c3[nH]c2=O)c1,MIC90,[1],0.5 µg/mL
same,MIC99,Staphylococcus aureus,> 64 µg/mL
same,MIC99,Escherichia coli,> 64 µg/mL
same,MIC80,Cryptococcus neoformans,> 64 µg/mL
same,MIC80,Candida albicans,> 64 µg/mL
same,Activity,L02,Toxic
same,MIC90,[3],1 µg/mL
same,Tmax,[6],6 h
same,Cmax,[7],283 µM
same,half-life,[8],48 h
same,half-life,[9],35.6 h
same,AUC,[10],1200 µM·h
same,AUC,[11],19700 µM·h
same,bioavailability,[12],16.4%
same,Activity,[13],Dose-Dependent Effect
same,Activity,[14],0.64 log10RLU
same,Activity,[15],0.37 log10RLU
same,Activity,[16],0.29 log10RLU
same,Activity,[17],4.93 log10RLU
same,Activity,[18],5.31 log10RLU
same,MIC,[19],4 µg/mL
same,MIC,[20],1 µg/mL
same,MIC,[2],0.5 µg/mL
same,inhibition,[4],Active
same,Selectivity ratio,[21],2
same,Activity,[22],Non-Toxic
O=c1[nH]c2c(Br)csc2c(O)c1-c1ccccc1,MIC90,[1],0.5 µg/mL
same,MIC99,Staphylococcus aureus,> 64 µg/mL
same,MIC99,Escherichia coli,> 64 µg/mL
O=c1[nH]c2c(Br)csc2c(O)c1-c1ccc(Cl)cc1Cl,MIC90,[1],> 64 µg/mL
COc1cccc(-c2c(O)c3scc(Br)c3[nH]c2=O)c1,MIC90,[1],8 µg/mL
O=c1[nH]c2c(Br)csc2c(O)c1-c1ccc(Br)cc1,MIC90,[1],16 µg/mL
O=c1[nH]c2c(Br)csc2c(O)c1-c1cccc([N+](=O)[O-])c1,MIC90,[1],> 64 µg/mL
N#Cc1ccc(-c2c(O)c3scc(Br)c3[nH]c2=O)cc1,MIC90,[1],32 µg/mL
CC(=O)Oc1c(-c2ccccc2)c(=O)n(C(C)=O)c2c(Br)csc12,MIC90,[1],4 µg/mL
Cc1csc2c(O)c(-c3ccccc3)c(=O)[nH]c12,MIC90,[1],4 µg/mL
O=c1[nH]c2c(Br)csc2c(O)c1-c1ccc2ccccc2c1,MIC90,[1],16 µg/mL
O=c1[nH]c2c(Br)csc2c(O)c1-c1ccc(Cl)cc1F,MIC90,[1],16 µg/mL
